Reference: US11059832B2, “HPK1 inhibitors and methods of using same” (University Health Network, priority 2015, dated 2021)

Experiments:
human HPK1 (MAP4K1) = biological target: T1, human HPK1 (MAP4K1) (Homo sapiens, UniProt Q92918); assay: HPK1 inhibition assay (indirect ELISA); format: biochemical; settings: GST-HPK1 0.6 nM, 12 μM ATP; read-out: IC50 Range HPK1
T1 construct: human HPK1 (aa 1-346); purchased Invitrogen PV6355
T1 sequence (Q92918 1-346): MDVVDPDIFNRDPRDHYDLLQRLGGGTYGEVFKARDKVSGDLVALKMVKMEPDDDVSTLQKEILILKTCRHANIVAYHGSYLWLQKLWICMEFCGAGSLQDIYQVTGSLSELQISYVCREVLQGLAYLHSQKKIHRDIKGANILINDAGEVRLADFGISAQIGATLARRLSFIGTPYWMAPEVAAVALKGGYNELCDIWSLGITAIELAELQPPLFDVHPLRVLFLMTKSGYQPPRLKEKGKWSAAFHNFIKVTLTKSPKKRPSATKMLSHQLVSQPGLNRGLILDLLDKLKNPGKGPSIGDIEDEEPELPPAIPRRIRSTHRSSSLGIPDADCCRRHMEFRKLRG
In short: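 GST-tagged human HPK1 (aa 1-346, 0.6 nM) phosphorylated MBP-coated wells with 12 μM ATP in MOPS pH 7.2/Mg2+ buffer for 30 min after 15-min compound preincubation; phospho-Thr detected by antibody ELISA with TMB, 450 nm. Tested at 10 μM or 10-point titration (typically 50-0.1 μM); IC50 by 4-parameter logistic fit.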

[1] = system: ERK1/2 T202/Y204 phosphorylation in α-CD3 stimulated Jurkat E6.1 cells; assay: In vitro phosphorylation assay, ERK1/2 T202/Y204 (immunoblot); format: cell-based; settings: Homo sapiens, 4 h pretreatment, read-out: ERK1/2 T202/Y204 Phosphorylation Onset Inhibition
Experimental: (§1) Jurkat E6.1 cells were obtained from American Type Culture Collection (ATCC, Manassas, Va.), and maintained according to the supplier's instructions. Cells were washed three times and starved in RPMI 1640 medium supplemented with 0.5% fetal calf serum for 18 h at 37° C. Serum starved cells were pretreated with the indicated concentration of inhibitor for 4 hours before stimulation with 10 μg/ml α-CD3 antibody (BioLegend, Inc., San Diego, Calif.) for 10 min at 37° C. The cells were washed once in phosphate-buffered saline (pH 7.4) containing 10 mm sodium pyrophosphate, 10 mm sodium fluoride, 10 mm EDTA, and 1 mm sodium orthovanadate. Protein lysates were prepared using ice-cold radioimmunoprecipitation assay (RIPA) lysis buffer. A total of 100 μg of cell lysate was loaded onto Bis-Tris gels (Life Technologies, Carlsbad, Calif.) with full-range molecular weight marker as a size reference, and resolved by SDS-PAGE electrophoresis. Proteins were transferred to PVDF membrane (Millipore, Billerica, Mass.), blocked and probed with antibodies for phospho-SLP-76 (Ser376) (rabbit polyclonal #13177; Cell Signaling Technology Inc., Danvers, Mass.), SLP-76 (rabbit polyclonal #4958; Cell Signaling Technology Inc., Danvers, Mass.), phospho-ERK (mouse monoclonal sc-7383; Santa Cruz Biotechnology Inc., Santa Cruz, Calif.) and ERK1/2 (rabbit polyclonal 06-182; Millipore, Billerica, Mass.). Secondary antibodies were diluted 1 in 15,000 and incubated for 1 h at rt. Protein bands were visualized and quantified using Odyssey near infrared imager (LI-COR, Lincoln, Nebr.).
(§2) Table 2 below lists effects of representative compounds of the present invention against SLP-76 serine 376 phosphorylation and ERK1/2 T202/Y204 phosphorylation in α-CD3 stimulated Jurkat E6.1 cells.

LCK = biological target: T2, LCK (Homo sapiens, UniProt P06239); assay: LCK inhibition, FRET based Z'-LYTE Kinase Assay; format: biochemical; settings: 25 nM LCK, 180 μM ATP; read-out: IC50 Range Lck
T2 construct: purchased Invitrogen P3043
Experimental: (§3) FLT3 and LCK compound inhibition were determined using FRET based Z′-LYTE Kinase Assay Kit with Tyrosine 2 peptide as the substrate (Invitrogen cat #PV3191). […] The % inhibition values were determined according to the manufacturer's directions and IC50 values were obtained using a non-linear 4 point logistic curve fit (XLfit4, IDBS).

FLT3 = biological target: T3, FLT3 (Homo sapiens, UniProt P36888); assay: FLT3 inhibition, FRET based Z'-LYTE Kinase Assay; format: biochemical; settings: 1 nM FLT3, 940 μM ATP; read-out: IC50 Range Flt3
T3 construct: purchased Invitrogen PV3182
T3 sequence (P36888 27-993): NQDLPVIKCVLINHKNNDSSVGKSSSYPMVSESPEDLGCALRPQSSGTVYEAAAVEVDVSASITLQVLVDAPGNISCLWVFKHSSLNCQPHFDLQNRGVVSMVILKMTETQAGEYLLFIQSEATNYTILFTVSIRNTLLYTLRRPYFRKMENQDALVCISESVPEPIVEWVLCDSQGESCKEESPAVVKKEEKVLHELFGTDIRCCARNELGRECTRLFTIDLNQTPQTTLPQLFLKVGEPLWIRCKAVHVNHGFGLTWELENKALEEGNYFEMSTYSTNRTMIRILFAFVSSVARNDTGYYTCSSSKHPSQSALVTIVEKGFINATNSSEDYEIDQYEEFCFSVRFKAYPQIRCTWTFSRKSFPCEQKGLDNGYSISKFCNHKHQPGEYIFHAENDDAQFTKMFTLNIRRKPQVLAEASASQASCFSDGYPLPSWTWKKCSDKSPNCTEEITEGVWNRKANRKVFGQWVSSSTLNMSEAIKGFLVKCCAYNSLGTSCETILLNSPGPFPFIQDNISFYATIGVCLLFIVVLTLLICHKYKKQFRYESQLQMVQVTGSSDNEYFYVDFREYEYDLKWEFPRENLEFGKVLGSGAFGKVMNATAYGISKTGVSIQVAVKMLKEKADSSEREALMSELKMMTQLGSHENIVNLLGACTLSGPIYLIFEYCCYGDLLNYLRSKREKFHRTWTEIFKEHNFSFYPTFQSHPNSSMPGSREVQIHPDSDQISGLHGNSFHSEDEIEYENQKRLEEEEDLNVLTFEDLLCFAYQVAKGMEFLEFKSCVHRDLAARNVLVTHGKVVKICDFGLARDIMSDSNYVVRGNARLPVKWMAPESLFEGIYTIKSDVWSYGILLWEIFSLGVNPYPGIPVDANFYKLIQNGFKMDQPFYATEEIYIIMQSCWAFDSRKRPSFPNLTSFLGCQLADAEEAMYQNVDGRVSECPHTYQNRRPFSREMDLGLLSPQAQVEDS
Experimental: as §3

[2] = system: SLP-76 serine 376 phosphorylation in α-CD3 stimulated Jurkat E6.1 cells; assay: In vitro phosphorylation assay, SLP-76 Ser376 (immunoblot); format: cell-based; settings: Homo sapiens, 4 h pretreatment, substantive = >75% inhibition as estimated by immunoblot analysis, read-out: SLP76 S376 Phosphorylation Onset-Substantive* Inhibition
Experimental: as §1, §2

T2 sequence (P06239 whole entry, species assumed): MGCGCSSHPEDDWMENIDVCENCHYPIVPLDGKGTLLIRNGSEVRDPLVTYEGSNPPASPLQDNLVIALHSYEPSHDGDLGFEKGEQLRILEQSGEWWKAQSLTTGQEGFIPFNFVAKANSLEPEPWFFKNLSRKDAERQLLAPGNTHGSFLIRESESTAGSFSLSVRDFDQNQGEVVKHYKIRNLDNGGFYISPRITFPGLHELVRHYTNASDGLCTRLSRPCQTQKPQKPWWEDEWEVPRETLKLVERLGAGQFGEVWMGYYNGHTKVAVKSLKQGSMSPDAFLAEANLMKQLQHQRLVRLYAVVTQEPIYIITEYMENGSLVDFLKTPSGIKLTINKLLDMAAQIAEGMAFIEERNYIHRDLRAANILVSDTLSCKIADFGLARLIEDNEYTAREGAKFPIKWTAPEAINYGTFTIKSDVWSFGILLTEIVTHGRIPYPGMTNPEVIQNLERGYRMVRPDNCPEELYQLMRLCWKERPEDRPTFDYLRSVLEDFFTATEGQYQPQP

Compound | IC50 (human HPK1 (MAP4K1)) [nM] | minimal effective concentration [1] [µM] | IC50 (LCK) [nM] | IC50 (FLT3) [nM] | IC75 [2] [nM]
CN1CCN(c2ccc3nc(-c4c(N[C@@H]5CCOC5)c5ccsc5[nH]c4=O)[nH]c3c2)CC1 [Example A10, (R)-5-(6-(4-methylpiperazin-1-yl)-1H-benzo[d]imidazol-2-yl)-4-((tetrahydrofuran-3-yl)amino)thieno[2,3-b]pyridin-6(7H)-one] | ≤ 50 | > 3 | 50 to 500 | ≤ 50 | 1000 to 3000
CN1CCC(Nc2c(-c3nc4ccc(N5CCOCC5)cc4[nH]3)c(=O)[nH]c3sccc23)CC1 [Example A18, 4-((1-methylpiperidin-4-yl)amino)-5-(6-morpholino-1H-benzo[d]imidazol-2-yl)thieno[2,3-b]pyridin-6(7H)-one] | ≤ 50 | > 3 | 50 to 500 | ≤ 50 | 300 to 1000
CN1CCN(c2ccc3nc(-c4c(N)c5c(N6CCNCC6)csc5[nH]c4=O)[nH]c3c2)CC1 [Example A21, 4-amino-5-(6-(4-methylpiperazin-1-yl)-1H-benzo[d]imidazol-2-yl)-3-(piperazin-1-yl)thieno[2,3-b]pyridin-6(7H)-one] | ≤ 50 | > 3 | > 500 | 50 to 500 | > 3000
CN1CCN(c2ccc3nc(-c4c(N)c5cscc5[nH]c4=O)[nH]c3c2)CC1 [Example A23, 4-amino-3-(6-(4-methylpiperazin-1-yl)-1H-benzo[d]imidazol-2-yl)thieno[3,4-b]pyridin-2(1H)-one] | ≤ 50 | > 3 | ≤ 50 | ≤ 50 | 300 to 1000
CN1CCN(c2ccc3nc(-c4c(N)c5sccc5[nH]c4=O)[nH]c3c2)CC1 [Example A30, 7-amino-6-(6-(4-methylpiperazin-1-yl)-1H-benzo[d]imidazol-2-yl)thieno[3,2-b]pyridin-5(4H)-one] | ≤ 50 | > 3 | ≤ 50 | ≤ 50 | 300 to 1000
CN1CCN(c2ccc3nc(-c4c(NC5CCCC5)c5sccc5[nH]c4=O)[nH]c3c2)CC1 [Example A34, 7-(cyclopentylamino)-6-(6-(4-methylpiperazin-1-yl)-1H-benzo[d]imidazol-2-yl)thieno[3,2-b]pyridin-5(4H)-one] | ≤ 50 | 3 | ≤ 50 | ≤ 50 | 1000 to 3000
CN1CCN(c2ccc3nc(-c4c(N[C@H]5CC[C@H](O)CC5)c5sccc5[nH]c4=O)[nH]c3c2)CC1 [Example A37, 7-(((1r,4r)-4-hydroxycyclohexyl)amino)-6-(6-(4-methylpiperazin-1-yl)-1H-benzo[d]imidazol-2-yl)thieno[3,2-b]pyridin-5(4H)-one] | ≤ 50 | 1 to 3 | ≤ 50 | ≤ 50 | 100 to 300
O=c1[nH]c2ccsc2c(NC2CCNCC2)c1-c1nc2ccc(N3CCOCC3)cc2[nH]1 [Example A43, 6-(6-morpholino-1H-benzo[d]imidazol-2-yl)-7-(piperidin-4-ylamino)thieno[3,2-b]pyridin-5(4H)-one] | ≤ 50 | > 3 | 50 to 500 | ≤ 50 | 100 to 300
CN1CCN(c2ccc3nc(-c4c(N[C@H]5CCCC[C@H]5O)c5ccsc5[nH]c4=O)[nH]c3c2)CC1 [Example A57, 4-(((1S,2R)-2-hydroxy-cyclohexyl)amino)-5-(6-(4-methylpiperazin-1-yl)-1H-benzo[d]imidazol-2-yl)thieno-[2,3-b]pyridin-6(7H)-one] | ≤ 50 | > 3 | 50 to 500 | ≤ 50 | 300 to 1000
CN1CCN(c2ccc3nc(-c4c(N[C@H]5CCC[C@@H]5O)c5ccsc5[nH]c4=O)[nH]c3c2)CC1 [Example A66, 4-(((1S,2S)-2-hydroxycyclopentyl)amino)-5-(6-(4-methylpiperazin-1-yl)-1H-benzo[d]imidazol-2-yl)thieno[2,3-b]pyridin-6(7H)-one] | ≤ 50 | – | ≤ 50 | ≤ 50 | –
CN1CCN(c2ccc3nc(-c4c(N[C@@H]5CCC[C@H]5O)c5ccsc5[nH]c4=O)[nH]c3c2)CC1 [Example A67, 4-(((1R,2R)-2-hydroxycyclopentyl)amino)-5-(6-(4-methylpiperazin-1-yl)-1H-benzo[d]imidazol-2-yl)thieno[2,3-b]pyridin-6(7H)-one] | ≤ 50 | – | 50 to 500 | ≤ 50 | –
CN1CCN(c2cc3[nH]c(-c4c(N)c5sccc5[nH]c4=O)nc3cc2F)CC1 [Example A68, 7-amino-6-(5-fluoro-6-(4-methylpiperazin-1-yl)-1H-benzo[d]imidazol-2-yl)thieno[3,2-b]pyridin-5(4H)-one] | ≤ 50 | – | ≤ 50 | ≤ 50 | –
CN1CCN(c2ccc3nc(-c4c(N[C@@H]5CCOC5)c5cscc5[nH]c4=O)[nH]c3c2)CC1 [Example A71, (R)-3-(6-(4-methylpiperazin-1-yl)-1H-benzo[d]imidazol-2-yl)-4-((tetrahydrofuran-3-yl)amino)thieno[3,4-b]pyridin-2(1H)-one] | ≤ 50 | – | ≤ 50 | ≤ 50 | –
O=c1[nH]c2sccc2c(N[C@H]2CCCC[C@H]2O)c1-c1nc2ccc(N3CCOCC3)cc2[nH]1 [Example A72, 4-(((1S,2R)-2-hydroxycyclohexyl)amino)-5-(6-morpholino-1H-benzo[d]imidazol-2-yl)thieno[2,3-b]pyridin-6(7H)-one] | ≤ 50 | – | > 500 | ≤ 50 | –
